Experimental data as given in patent publication US7399756B2, “Organo-phosphorous compounds for activating gamma/delta T cells” (Bioagency AG, priority 2001, dated 2008).

System: V gamma 9+ T-cells (gamma/delta T-cells)
Assay: Activation of gamma/delta T-cells: CD25 expression on V gamma 9+ T-cells of peripheral blood lymphocytes, flow cytometry
Type: cell-based, human
Conditions: peripheral blood lymphocytes of healthy donors, 72 hours incubation with IL-2, CD25 activation marker; IPP positive control 10 μM
Experimental: Lymphocytes were obtained from the peripheral blood of healthy donors by Ficoll density gradient centrifugation. For each test, 2×10^5 of the cells so obtained were seeded in a volume of 0.2 ml of RPMI-1640 medium (Life Technologies) that was enriched with 25 mM HEPES, 2 mM L-glutamine, 0.025 mg/ml of gentamicin, 100 U/ml of human interleukin-2 (IL-2) (all from Life Technologies) and 10% human AB serum (Bavarian Red Cross). The test fractions were added in various dilutions, and isopentenyl diphosphate (IPP) from Sigma was used in a final concentration of 10 μM as a positive control. Incubation was effected in the incubator with 5% CO2 at 37° C. After 72 hours the cells were harvested and analysed in a flow cytometer. In so doing, the expression of the CD25 activation marker on the surface of V gamma 9^+ T-cells was measured with the aid of the monoclonal antibodies CD25-PE (B1.49.9), V gamma 9-FITC (lmmu360) and CD3-PC5 (UCHT1) supplied by Beckman-Coulter.
Lymphocytes were obtained from the peripheral blood of healthy donors by Ficoll density gradient centrifugation. […] After 72 hours the cells were harvested and analysed in a flow cytometer. In so doing, the expression of the CD25 activation marker on the surface of V gamma 9^+ T-cells was measured with the aid of the monoclonal antibodies CD25-PE (B1.49.9), V gamma 9-FITC (Immu360) and CD3-PC5 (UCHT1) supplied by Beckman-Coulter.

CC(=CCCP(=O)([O-])OP(=O)([O-])[O-])CO.[Na+].[Na+].[Na+] [compound 15]
activity relative to IPP (times more active than IPP): about 500 times

CC(=CCCP(=O)([O-])CP(=O)([O-])[O-])CO.[Na+].[Na+].[Na+] [compound 19]
activity relative to IPP (times more active than IPP): about 500 times
